The conditions of data set [1]: rats, reported; cited from earlier work.
Data set [2] can be described thus: Determination of bioavailability, stomach (oral gavage) v. intraduodenal administration. In kind it is in vivo, Sprague dawley rats. To be noted: 20 mg/kg in Captex 355, fed female rats; for AUC / Cmax: plasma.
Procedure: Fed female Sprague dawley rats, 225-250 g with surgically implanted intra-duodenal catheters were obtained commercially. Rats were dosed solutions of ibrutinib via bolus injection: oral gavage was done to measure exposure after oral dosing, or dosing via administration through the intra-duodenal catheter to measure exposure bypassing the stomach. Ibrutinib was dosed at 20 mg/kg at a dose volume of 2 ml/kg. Blood was withdrawn at time points out to 24 hours and Ibrutinib quantitated via LC/MS/MS to obtain plasma concentrations. PK parameters were calculated via commercially available software and measures of exposure were used to assess differences in dosing routes.

These results are taken from patent US20150140085A1, “FORMULATIONS COMPRISING IBRUTINIB” (PRINCIPIA BIOPHARMA INC., priority 2012, published 2015).

What is called AUC is concentration integrated over time. For orientation: Cmax means the peak of the concentration-time curve.

On to ibrutinib, for which the oral bioavailability in data set [1] is 22.8%. Further, in data set [2] (ID (intra-duodenal catheter)), the “F (bioavailability)” value is reported as 100%, the exposure (AUC) was found to be 4943 ng·h/mL and the highest concentration (Cmax) was determined as 884 ng/mL. In addition, in data set [2] (PO (oral gavage)), the “F (bioavailability)” value came out at 21%, the AUC turned out to be 998 ng·h/mL and the peak concentration (Cmax) stood at 243 ng/mL.
